In ChEMBL document CHEMBL4311974, “Synthesis of coumarin-sulfonamide derivatives and determination of their cytotoxicity, carbonic anhydrase inhibitory and molecular docking studies” (Eur J Med Chem, 2019):

Columns and labels:
[1] = target: Carbonic anhydrase 1 (Homo sapiens, UniProt P00915)
Description: Inhibition of human carbonic anhydrase 1 incubated for 10 mins prior to testing measured for 5 to 10 secs by phenol red-based stopped-flow CO2 hydration assay

[2] = target: Carbonic anhydrase 9 (Homo sapiens, UniProt Q16790)
Description: Inhibition of human carbonic anhydrase 9 incubated for 10 mins prior to testing measured for 5 to 10 secs by phenol red-based stopped-flow CO2 hydration assay

[3] = test system: HT-29; experiment: cells; format: functional, cell-based; settings: Homo sapiens, HT-29, 24 h
Description: Cytotoxicity in human HT-29 cells assessed as reduction in cell viability incubated for 24 hrs under hypoxic condition by MTT assay

[4] = test system: HEK-293T; experiment: cells; format: ADME, cell-based; settings: Homo sapiens, 24 h
Description: Cytotoxicity in HEK293T cells assessed as reduction in cell viability incubated for 24 hrs under hypoxic condition by MTT assay

[5] = target: Carbonic anhydrase 12 (Homo sapiens, UniProt O43570)
Description: Inhibition of human carbonic anhydrase 12 incubated for 10 mins prior to testing measured for 5 to 10 secs by phenol red-based stopped-flow CO2 hydration assay

[6] = target: Carbonic anhydrase 2 (Homo sapiens, UniProt P00918)
Description: Inhibition of human carbonic anhydrase 2 incubated for 10 mins prior to testing measured for 5 to 10 secs by phenol red-based stopped-flow CO2 hydration assay

Carbonic anhydrase 12, sequence (O43570 whole entry): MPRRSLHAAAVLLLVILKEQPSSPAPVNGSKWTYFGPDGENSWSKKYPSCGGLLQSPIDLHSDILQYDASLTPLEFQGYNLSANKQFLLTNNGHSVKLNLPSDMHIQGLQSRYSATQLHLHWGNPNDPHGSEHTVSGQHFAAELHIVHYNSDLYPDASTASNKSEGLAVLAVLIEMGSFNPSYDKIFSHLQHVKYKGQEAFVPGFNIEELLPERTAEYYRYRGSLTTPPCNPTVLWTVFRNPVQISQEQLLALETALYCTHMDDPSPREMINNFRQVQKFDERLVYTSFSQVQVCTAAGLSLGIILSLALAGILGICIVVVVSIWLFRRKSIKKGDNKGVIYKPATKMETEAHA
Carbonic anhydrase 1, sequence (P00915 whole entry): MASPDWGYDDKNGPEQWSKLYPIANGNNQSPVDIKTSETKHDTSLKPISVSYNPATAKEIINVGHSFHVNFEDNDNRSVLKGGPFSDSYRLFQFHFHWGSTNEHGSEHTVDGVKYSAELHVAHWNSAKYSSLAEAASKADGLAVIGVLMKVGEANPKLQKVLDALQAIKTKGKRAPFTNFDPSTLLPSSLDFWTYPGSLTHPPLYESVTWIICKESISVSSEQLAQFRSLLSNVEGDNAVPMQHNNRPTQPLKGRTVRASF

`NS(=O)(=O)c1ccc(C/N=C/c2cc(Br)ccc2OCc2cn(CCCOc3ccc4ccc(=O)oc4c3)nn2)cc1` was tested, and the Ki [1] was greater than 10 µM, the Ki [2] was 0.16 µM and the IC50 [3] was 17.7 µM. For the same molecule, the IC50 [4] was 8.25 µM.
With `O=Cc1cc([N+](=O)[O-])ccc1OCc1cn(CCCOc2ccc3ccc(=O)oc3c2)nn1` the Ki [5] was greater than 10 µM, the Ki [1] was greater than 10 µM and the Ki [6] was greater than 10 µM. For the same molecule, the Ki [2] was 0.137 µM and the IC50 [3] was 53.6 µM.
Molecule `NS(=O)(=O)c1ccc(C/N=C/c2ccccc2OCc2cn(CCCOc3ccc4ccc(=O)oc4c3)nn2)cc1` has a Ki [1] greater than 10 µM, a Ki [2] of 0.187 µM and an IC50 [3] of 14.3 µM. The IC50 [4] was 13.9 µM.
For `NS(=O)(=O)c1ccc(C/N=C/c2ccc(OCc3cn(CCCOc4ccc5ccc(=O)oc5c4)nn3)cc2)cc1`, the Ki [1] was greater than 10 µM, the Ki [2] was 0.169 µM and the IC50 [3] was 125 µM.
`COc1cc(/C=N/Cc2ccc(S(N)(=O)=O)cc2)ccc1OCc1cn(CCCOc2ccc3ccc(=O)oc3c2)nn1` showed a Ki [1] greater than 10 µM, a Ki [2] of 0.76 µM and an IC50 [3] of 31.6 µM.
With `NS(=O)(=O)c1ccc(C/N=C/c2cc([N+](=O)[O-])ccc2OCc2cn(CCCOc3ccc4ccc(=O)oc4c3)nn2)cc1` the Ki [1] was greater than 10 µM, the Ki [2] was 0.857 µM and the IC50 [3] was 117 µM.
`NS(=O)(=O)c1ccc(C/N=C/c2c(OCc3cn(CCCOc4ccc5ccc(=O)oc5c4)nn3)ccc3ccccc23)cc1` was tested, and the Ki [1] was greater than 10 µM, the Ki [2] was 0.0455 µM and the IC50 [3] was 17 µM. For the same molecule, the IC50 [4] was 119 µM.
`C#CCOc1ccc(/C=N/Cc2ccc(S(N)(=O)=O)cc2)cc1OC` showed a Ki [1] greater than 10 µM, a Ki [2] of 0.0812 µM and an IC50 [3] of 136 µM. The IC50 [4] was 537 µM.
Molecule `COc1cc(C=O)ccc1OCc1cn(CCCOc2ccc3ccc(=O)oc3c2)nn1` has a Ki [5] greater than 10 µM, a Ki [1] greater than 10 µM and a Ki [6] greater than 10 µM. The Ki [2] was 0.133 µM and the IC50 [3] was 65.4 µM.
Molecule `COc1cccc(C=O)c1OCc1cn(CCCOc2ccc3ccc(=O)oc3c2)nn1` has a Ki [5] greater than 10 µM, a Ki [1] greater than 10 µM and a Ki [6] greater than 10 µM. It also gave a Ki [2] of 1.17 µM, an IC50 [3] of 13.3 µM and an IC50 [4] of 30.4 µM.
For `C#CCOc1cc(N(CC)CC)ccc1/C=N/Cc1ccc(S(N)(=O)=O)cc1`, the Ki [1] was greater than 10 µM, the Ki [2] was 0.198 µM and the IC50 [3] was 62.8 µM.
Molecule `NS(=O)(=O)c1ccc(C/N=C/c2cccc(OCc3cn(CCCOc4ccc5ccc(=O)oc5c4)nn3)c2)cc1` has a Ki [1] greater than 10 µM, a Ki [2] of 0.955 µM and an IC50 [3] of 107 µM.
For `O=Cc1ccccc1OCc1cn(CCCOc2ccc3ccc(=O)oc3c2)nn1`, the Ki [1] was greater than 10 µM, the Ki [2] was 0.128 µM and the IC50 [3] was 18.9 µM. For the same molecule, the IC50 [4] was 13.7 µM.
`C#CCOc1ccc(/C=N/Cc2ccc(S(N)(=O)=O)cc2)cc1` showed a Ki [1] greater than 10 µM, a Ki [2] of 0.231 µM and an IC50 [3] of 14.1 µM. For the same molecule, the IC50 [4] was 398 µM.
Work on `C#CCOc1ccccc1/C=N/Cc1ccc(S(N)(=O)=O)cc1` yielded a Ki [1] greater than 10 µM, a Ki [2] of 1.07 µM and an IC50 [3] of 31 µM.
For `CCN(CC)c1ccc(/C=N/Cc2ccc(S(N)(=O)=O)cc2)c(OCc2cn(CCCOc3ccc4ccc(=O)oc4c3)nn2)c1`, the Ki [1] was greater than 10 µM, the Ki [2] was 2.18 µM and the IC50 [3] was 23.3 µM. It also gave an IC50 [4] of 29.5 µM.
For `C#CCOc1c(/C=N/Cc2ccc(S(N)(=O)=O)cc2)cccc1OC`, the Ki [1] was greater than 10 µM, the Ki [2] was 1.19 µM and the IC50 [3] was 81.3 µM. The IC50 [4] was 135 µM.
`O=Cc1cc(Br)ccc1OCc1cn(CCCOc2ccc3ccc(=O)oc3c2)nn1` was tested, and the Ki [5] was greater than 10 µM, the Ki [1] was greater than 10 µM and the Ki [6] was greater than 10 µM. The Ki [2] was 0.196 µM, the IC50 [3] was 7.47 µM and the IC50 [4] was 6.08 µM.
With `C#CCOc1cccc(/C=N/Cc2ccc(S(N)(=O)=O)cc2)c1` the Ki [1] was greater than 10 µM, the Ki [2] was 2.03 µM and the IC50 [3] was 104 µM.
With `COc1cccc(/C=N/Cc2ccc(S(N)(=O)=O)cc2)c1OCc1cn(CCCOc2ccc3ccc(=O)oc3c2)nn1` the Ki [1] was greater than 10 µM, the Ki [2] was 1.48 µM and the IC50 [3] was 52.5 µM.
Molecule `O=Cc1cccc(OCc2cn(CCCOc3ccc4ccc(=O)oc4c3)nn2)c1` has a Ki [1] greater than 10 µM, a Ki [6] greater than 10 µM and a Ki [2] of 0.192 µM. The IC50 [3] was 129 µM.
With `C#CCOc1ccc(Br)cc1/C=N/Cc1ccc(S(N)(=O)=O)cc1` the Ki [1] was greater than 10 µM, the Ki [2] was 0.19 µM and the IC50 [3] was 45.7 µM.
`C#CCOc1ccc([N+](=O)[O-])cc1/C=N/Cc1ccc(S(N)(=O)=O)cc1` was tested, and the Ki [1] was greater than 10 µM, the Ki [2] was 0.212 µM and the IC50 [3] was 34.8 µM.
`COc1cccc2c1C(=O)c1c(O)c3c(c(O)c1C2=O)C[C@@](O)(C(=O)CO)C[C@@H]3O[C@H]1C[C@H](N)[C@H](O)[C@H](C)O1` [DOXORUBICIN] showed an IC50 [3] of 5.38 µM and an IC50 [4] of 1.05 µM.
`O=Cc1c(OCc2cn(CCCOc3ccc4ccc(=O)oc4c3)nn2)ccc2ccccc12` was tested, and the Ki [5] was greater than 10 µM, the Ki [1] was greater than 10 µM and the Ki [6] was greater than 10 µM. It also gave a Ki [2] of 0.189 µM and an IC50 [3] of 149 µM.
For `CCN(CC)c1ccc(C=O)c(OCc2cn(CCCOc3ccc4ccc(=O)oc4c3)nn2)c1`, the Ki [5] was greater than 10 µM, the Ki [1] was greater than 10 µM and the Ki [6] was greater than 10 µM. It also gave a Ki [2] of 0.158 µM, an IC50 [3] of 9.03 µM and an IC50 [4] of 19.2 µM.
`C#CCOc1ccc2ccccc2c1/C=N/Cc1ccc(S(N)(=O)=O)cc1` was tested, and the Ki [1] was greater than 10 µM, the Ki [2] was 1.09 µM and the IC50 [3] was 46.1 µM.
In the case of `O=Cc1ccc(OCc2cn(CCCOc3ccc4ccc(=O)oc4c3)nn2)cc1`, the Ki [5] is reported as greater than 10 µM, the Ki [1] is reported as greater than 10 µM and the Ki [6] is reported as greater than 10 µM. It also gave a Ki [2] of 0.171 µM and an IC50 [3] of 100 µM.
